The source of these data is article PMC3086468 (Journal of medicinal chemistry, 2011).

The test system of one experiment is JTAg cells. As to the kind of experiment: TCR signaling in JTAg cells, Western blot. To be noted: for TCR-induced phosphorylation of Lck at Y394: 50 μM compound, C305 stimulation 2 min, anti-pSrc(Y416) blot. It is filed as cell-based, human.
The next experiment has as its system primary human T cells. Nature of the experiment: TCR-induced phosphorylation in primary human T cells. In kind it is cell-based. To be noted: 50 μM, anti-CD3/anti-CD28 1 min.
The test system of another experiment is Pep. Nature of the experiment: Lck Y394 phosphorylation in Ptpn22+/+ and Ptpn22−/− mouse T cells. In kind it is cell-based. Particulars: 50 μM, stimulated with anti-CD3 and anti-CD4.
A further experiment has as its target T1, LYP (Homo sapiens, UniProt Q9Y2R2).
T1 sequence (Q9Y2R2 2-309): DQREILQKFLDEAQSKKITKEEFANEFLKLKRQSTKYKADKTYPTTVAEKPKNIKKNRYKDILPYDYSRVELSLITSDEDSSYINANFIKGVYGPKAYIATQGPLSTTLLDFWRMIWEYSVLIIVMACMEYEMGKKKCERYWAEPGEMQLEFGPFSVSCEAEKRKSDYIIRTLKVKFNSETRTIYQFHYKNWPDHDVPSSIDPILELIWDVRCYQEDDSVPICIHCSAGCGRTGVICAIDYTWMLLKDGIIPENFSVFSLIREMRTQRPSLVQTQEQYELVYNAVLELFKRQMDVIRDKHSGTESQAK
It is filed as biochemical.

Read-outs that look alike come from different tables or passages of the source.

For `CCOc1ccc2nc(NC(=O)CSc3nc4sc(C)c(C)c4c(=O)[nH]3)sc2c1` [Compound 1], in the experiment on JTAg cells (JTAg cells), the “TCR-induced phosphorylation of Lck at Y394” value is “lack of activity”.

As for `CCc1cccc(C)c1NC(=O)CSc1nc2c(C)ccc(C)c2cc1C#N` [Compound 2], the “phosphorylation of Lck at Y505” value with JTAg cells (JTAg cells treated with compound (data not shown)) was “unable to detect increased phosphorylation of Lck at Y505”. Moreover, the “TCR-induced phosphorylation of Lck at Y394” value in the experiment on JTAg cells (JTAg cells) is “lack of activity”.

Turning to `Cc1ccc2[nH]c(=O)c(C(c3nnnn3C3CCCC3)N3CCCC4(CCCCC4)C3)cc2c1` (centres unmarked) [Compound 4], the “TCR-induced phosphorylation of Lck, ZAP70 and LAT” value in the experiment with primary human T cells is “equally able to boost TCR-induced phosphorylation of Lck, ZAP70, and linker for activation of T cells (LAT)”. Moreover, in the experiment on Pep, the “Lck phosphorylation at Y394, wild type (Ptpn22+/+) T cells” value is listed as “increased Lck phosphorylation at Y394” and the “Lck phosphorylation, Ptpn22−/− T cells” value is listed as “no effect on phosphorylation of Lck”. For the same molecule, in the experiment on JTAg cells (JTAg cells, 50 μM, C305 2 min), the ERK1/2 phosphorylation entry is on record as “increased ERK1/2 phosphorylation” and the “TCR-stimulated phosphorylation of ZAP70” value is given as “increased TCR-stimulated phosphorylation of ZAP70”.

On to `Cc1ccc2[nH]c(=O)c(C(c3nnnn3C3CCCC3)N3CCN(C(c4ccccc4)c4ccccc4)CC3)cc2c1` (centres unmarked) [Compound 4f], for which the “relationship between IC50 and substrate concentration” value at LYP is listed as “independent from substrate concentration”. This molecule also displayed a α at LYP (pH 6) of 1.93 ± 1.27.

`Cc1ccc2[nH]c(=O)c(C(c3nnnn3C3CCCC3)N(Cc3ccccc3)Cc3ccc(Cl)cc3)cc2c1` (centres unmarked) [Compound 4g]: the “dual inhibition plot vs compound 13” value at LYP (13.72 μM pY peptide, 25 nM LYP) is “converging lines”. The α on LYP (mixed model inhibition fit, pY peptide, pH 6.0, 37 °C) was found to be 2.96 ± 2.48. Also, the “relationship between IC50 and substrate concentration” value at LYP (pY peptide, 25 nM LYP) is on record as “independent from substrate concentration”.

For the molecule `O=C(CSc1nc(C2CC2)nc2sc3c(c12)CCCC3)NCc1ccc2c(c1)OCO2` [Compound 6], in the experiment on JTAg cells (JTAg cells), the “TCR-induced phosphorylation of Lck at Y394” value was “lack of activity”.
